Source: DBAASP
Converted amounts (≈) assume the structure as drawn. One block for each molecule: values may come before it.

Experiments:
Assay in all cases: ≥ marks a high value that may be exact or a test limit, other limits are often not marked, values filed in µg/mL are converted to µM
[1] = system: Staphylococcus aureus NCTC 10788
[2] = system: Pseudomonas aeruginosa ATCC 27853
[3] = system: Escherichia coli ATCC 25922(RifR)
[4] = system: Escherichia coli ATCC 25922(GenR)
[5] = system: Enterococcus faecalis NCTC 12697
[6] = system: Candida albicans NCPF 1467
[7] = system: Escherichia coli NCTC 10418
[8] = system: Staphylococcus aureus ATCC 25923(RifR)
[9] = system: Staphylococcus aureus NCTC 12493
[10] = system: Staphylococcus aureus ATCC 25923(GenR)
[11] = system: Bacillus subtilis ATCC 23857
[12] = system: Klebsiella pneumoniae ATCC 700603
[13] = system: Staphylococcus epidermidis CGMCC 1.4260
[14] = system: Staphylococcus aureus CGMCC 1.8721
[15] = system: Bacillus subtilis CGMCC 1.3376
[16] = system: Escherichia coli CGMCC 1.8732
[17] = system: Pseudomonas aeruginosa CGMCC 1.2421
[18] = system: Klebsiella pneumoniae CGMCC 1.1736
[19] = system: Aspergillus fumigatus KCTC 6145
Bacillus subtilis = system: Bacillus subtilis
[20] = system: Aspergillus flavus KCTC 9471
[21] = system: Escherichia coli O157:H7 ATCC 43895
Staphylococcus aureus = system: Staphylococcus aureus
Trichosporon beigelii = system: Trichosporon beigelii
Salmonella typhimurium = system: Salmonella typhimurium
Saccharomyces cerevisiae = system: Saccharomyces cerevisiae
Proteus vulgaris = system: Proteus vulgaris
[22] = system: Listeria monocytogenes KCTC 3710
[23] = system: Staphylococcus epidermidis
Escherichia coli = system: Escherichia coli
[24] = system: Candida albicans KCTC 7270
Botrytis cinerea = system: Botrytis cinerea
Pseudomonas aeruginosa = system: Pseudomonas aeruginosa
Fusarium verticillioides = system: Fusarium verticillioides
Bacillus cereus = system: Bacillus cereus
[25] = system: Xanthomonas axonopodis ITCC BD00029
[26] = system: Candida albicans MTCC 227
[27] = system: Salmonella enterica subsp. enterica serovar Typhi
[28] = system: Staphylococcus aureus ATCC 43300
[29] = system: Fusarium solani MTCC 10158
[30] = system: Xanthomonas oryzae ITCC BB00026
[31] = system: Escherichia coli DH5alpha
Vibrio cholerae = system: Vibrio cholerae
[32] = system: Klebsiella oxytoca AB2010143
[33] = system: Micrococcus luteus AB2010179
Pseudomonas fluorescens = system: Pseudomonas fluorescens
[34] = system: Enterobacter cloacae AB2010162
[35] = system: Salmonella enterica AB2010185
Pseudomonas putida = system: Pseudomonas putida
[36] = system: Staphylococcus aureus AB94004
[37] = system: Bacillus magaterium AB90008

MIC [1]: 2 µM (≈ 2.77 µg/mL)
MIC [2]: 128 µM (≈ 177 µg/mL)
MIC [3]: ≥ 32 µM
MIC [4]: ≥ 32 µM
MIC [5]: 8 µM (≈ 11.1 µg/mL)
MIC [6]: 4 µM (≈ 5.53 µg/mL)
MIC [7]: 16 µM (≈ 22.1 µg/mL)
MIC [8]: 16 µM (≈ 22.1 µg/mL)
MIC [9]: 4 µM (≈ 5.53 µg/mL)
MIC [10]: 8 µM (≈ 11.1 µg/mL)
MIC [11]: 4 µM (≈ 5.53 µg/mL)
MIC [12]: > 128 µM
Structure (SMILES): CC[C@H](C)[C@H](NC(=O)[C@@H]1CCCN1C(=O)[C@H](CC(C)C)NC(=O)[C@@H](N)Cc1ccccc1)C(=O)N[C@H](C(=O)N[C@@H](C)C(=O)N[C@@H](CCCCN)C(=O)N[C@@H](CC(C)C)C(=O)N[C@@H](CC(C)C)C(=O)N[C@@H](CO)C(=O)NCC(=O)N[C@@H](CC(C)C)C(=O)N[C@@H](CC(C)C)C(N)=O)C(C)C [FLPIVAKLLSGLL]

MIC [13]: 6.25 µM (≈ 15.2 µg/mL)
MIC [14]: 25 µM (≈ 60.9 µg/mL)
MIC [15]: 3.13 µM (≈ 7.62 µg/mL)
MIC [16]: 12.5 µM (≈ 30.4 µg/mL)
MIC [17]: 12.5 µM (≈ 30.4 µg/mL)
MIC [18]: 25 µM (≈ 60.9 µg/mL)
Structure (SMILES): CC[C@H](C)[C@H](NC(=O)[C@H](C)N)C(=O)NCC(=O)N[C@@H](CO)C(=O)N[C@H](C(=O)N[C@@H](CC(C)C)C(=O)NCC(=O)N[C@@H](C)C(=O)N[C@@H](CC(C)C)C(=O)N[C@@H](C)C(=O)N[C@@H](CCCCN)C(=O)NCC(=O)N[C@@H](CC(C)C)C(=O)N1CCC[C@H]1C(=O)N[C@H](C(=O)N[C@@H](CC(C)C)C(=O)N[C@@H](CCCN=C(N)N)C(=O)N[C@@H](CO)C(=O)N[C@@H](Cc1c[nH]c2ccccc12)C(=O)N[C@H](C(=O)N[C@@H](CCCCN)C(=O)N[C@@H](CC(N)=O)C(=O)N[C@@H](CCCN=C(N)N)C(N)=O)[C@@H](C)CC)[C@@H](C)O)[C@@H](C)CC [AIGSILGALAKGLPTLRSWIKNR]

Structure (SMILES): CC[C@H](C)[C@H](NC(=O)[C@H](CCCCN)NC(=O)[C@H](CO)NC(=O)[C@H](Cc1ccccc1)NC(=O)[C@H](CO)NC(=O)[C@H](CCCCN)NC(=O)[C@H](CCC(=O)O)NC(=O)[C@H](CC(C)C)NC(=O)[C@H](CCCN=C(N)N)NC(=O)[C@H](CCCCN)NC(=O)[C@H](Cc1ccccc1)NC(=O)[C@@H](NC(=O)[C@H](CCCCN)NC(=O)[C@H](CCCCN)NC(=O)[C@H](C)N)C(C)C)C(=O)N[C@@H](CCC(N)=O)C(=O)N[C@@H](CC(N)=O)C(=O)N[C@@H](CC(=O)O)C(=O)N[C@@H](CCCCN)C(N)=O [AKKVFKRLEKSFSKIQNDK]
MIC [19]: ≥ 50 µM
MIC (Bacillus subtilis): 6.25 µM (≈ 14.3 µg/mL)
MIC [20]: ≥ 50 µM
MIC [21]: 12.5 µM (≈ 28.7 µg/mL)
MIC (Staphylococcus aureus): > 12.5 µM
MIC (Trichosporon beigelii): 12.5 µM (≈ 28.7 µg/mL)
MIC (Salmonella typhimurium): 12.5 µM (≈ 28.7 µg/mL)
MIC (Saccharomyces cerevisiae): 25 µM (≈ 57.3 µg/mL)
MIC (Proteus vulgaris): 12.5 µM (≈ 28.7 µg/mL)
MIC [22]: 12.5 µM (≈ 28.7 µg/mL)
MIC [23]: 12.5 µM (≈ 28.7 µg/mL)
MIC (Escherichia coli): 12.5 µM (≈ 28.7 µg/mL)
MIC [24]: 25 µM (≈ 57.3 µg/mL)
MIC (Botrytis cinerea): ≥ 50 µM
MIC (Pseudomonas aeruginosa): 12.5 µM (≈ 28.7 µg/mL)
MIC (Fusarium verticillioides): ≥ 50 µM

MIC (Bacillus cereus): 10 µM (≈ 13.9 µg/mL)
MIC [25]: 5 µM (≈ 6.97 µg/mL)
MIC [26]: ≥ 40 µM
MIC [27]: 10 µM (≈ 13.9 µg/mL)
MIC [28]: 10 µM (≈ 13.9 µg/mL)
MIC [29]: 20 µM (≈ 27.9 µg/mL)
MIC [30]: 10 µM (≈ 13.9 µg/mL)
MIC [31]: 20 µM (≈ 27.9 µg/mL)
Structure (SMILES): NCCCC[C@H](NC(=O)[C@H](CCCCN)NC(=O)[C@H](CS)NC(=O)[C@@H]1CSSC[C@H](N)C(=O)N[C@@H](CCCN=C(N)N)C(=O)N[C@@H](Cc2c[nH]c3ccccc23)C(=O)N[C@@H](CCCN=C(N)N)C(=O)N[C@@H](Cc2c[nH]c3ccccc23)C(=O)N[C@@H](CCCCN)C(=O)N1)C(=O)O [CRWRWKCCKK]
MIC (Vibrio cholerae): 20 µM (≈ 27.9 µg/mL)

MIC [32]: ≥ 45 µM
MIC [33]: 15.8 µM (≈ 40.7 µg/mL)
MIC (Pseudomonas fluorescens): ≥ 40 µM
MIC [34]: ≥ 45 µM
MIC [35]: 30 µM (≈ 77.3 µg/mL)
MIC (Pseudomonas putida): 20 µM (≈ 51.5 µg/mL)
MIC [31]: 15.8 µM (≈ 40.7 µg/mL)
MIC [36]: 5.6 µM (≈ 14.4 µg/mL)
MIC [37]: 30 µM (≈ 77.3 µg/mL)
Structure (SMILES): CC[C@H](C)[C@H](NC(=O)[C@H](CC(C)C)NC(=O)[C@H](CCCCN)NC(=O)[C@H](CC(C)C)NC(=O)[C@H](C)NC(=O)CNC(=O)[C@H](CCCCN)NC(=O)[C@H](C)NC(=O)[C@H](CC(C)C)NC(=O)[C@H](C)NC(=O)CNC(=O)[C@H](Cc1c[nH]c2ccccc12)NC(=O)[C@@H](N)Cc1ccccc1)C(=O)N1CCC[C@H]1C(=O)N[C@@H](CO)C(=O)N[C@@H](CC(C)C)C(=O)N[C@H](C(=O)N[C@@H](CO)C(=O)N[C@@H](CO)C(=O)N[C@@H](Cc1ccccc1)C(=O)N[C@H](C(=O)N[C@@H](CCCCN)C(=O)N[C@@H](CCCCN)C(=O)N[C@@H](CC(=O)O)C(N)=O)[C@@H](C)O)C(C)C [FWGALAKGALKLIPSLVSSFTKKD]
